# Test results: patent US20090054486A1, “POLYMORPHIC FORM XVI OF FEXOFENADINE HYDROCHLORIDE” (Teva Pharmaceuticals USA, Inc., priority 2002, published 2009)
# Counter-ions that a name gives are not always drawn.
# Test: Storage stability against transformation to other crystalline forms
# Format: physicochemical
# Protocol: Fexofenadine hydrochloride Form XVI is substantially stable during storage. Fexofenadine hydrochloride Form XVI is stable against transformation to other crystalline forms upon storage at relative humidity of up to about 100% for at least about 1 week, and storage at about 40° C. and about 75% relative humidity for at least about 6 months. The conversion is preferably less than about 5%, more preferably less than about 2% by weight.
# In another aspect, the present invention provides for processes for preparation of fexofenadine hydrochloride Form XVI, which allow preparing fexofenadine HCl form XVI substantially free of other polymorphic forms of fexofenadine HCl, including amorphous form. As used herein, “substantially free” refers to less than about 5% on a weight basis, preferably less than about 2%, weight of polymorphic forms other than Form XVI compared to the weight of all the polymorphic forms, including Form XVI. A suitable method for determining the presence of other polymorphic forms is with X-Ray Powder diffraction.
smiles,measurement,setting,value
"CC(C)(C(=O)O)c1ccc(C(O)CCCN2CCC(C(O)(c3ccccc3)c3ccccc3)CC2)cc1 (stereo not drawn) [Fexofenadine hydrochloride Form XVI, 4-[4-[4-(hydroxydiphenylmethyl)-1-piperidinyl]-1-hydroxybutyl]-α,α-dimethylbenzeneacetic acid]",time stable against transformation to other crystalline forms upon storage,storage at about 40° C. and about 75% relative humidity,at least 6 months
same,time stable against transformation to other crystalline forms upon storage,storage at relative humidity of up to about 100%,at least 1 week
